Here are results for 3 compounds from article PMC11378297, “Discovery and Profiling of New Multimodal Phenylglycinamide Derivatives as Potent Antiseizure and Antinociceptive Drug Candidates” (ACS Chemical Neuroscience, 2024).

Data set [1] concerns the target T1, CYP2D6 (Homo sapiens, UniProt P10635).
T1 construct: purchased Promega (Madison, WI, USA)
Kind of data set: CYP2D6 P450-Glo assay. In kind it is in vitro ADME. The protocol: The inhibition effect of enantiomers on CYP2C9 was also determined, but only at the highest concentrations (Figure 10C). In summary, the potential for DDIs of the tested enantiomers in comparison to the reference CYP inhibitors was estimated as very low.
Figure 10 Influence of (R)-31, (R)-32, and (R)-33 on: CYP3A4 activity (A) and the reference inhibitor ketoconazole (KE), CYP2D6 activity (B) and the reference inhibitor quinidine (QD), CYP2C9 activity (C) and the reference inhibitor sulfaphenazole (SE). The results are presented as means + SD. Statistical significance was evaluated by one-way ANOVA, followed by Bonferroni’s multiple comparison post hoc test (Graph Pad Prism 8.0.1 software) *p < 0.05, **p < 0.01, ***p < 0.001, ****p < 0.0001.
All assays and protocols used for the evaluation of compounds ADME-Tox parameters were described previously.[35]−[38],[95]−[98] The precoated PAMPA Plate System Gentest was utilized to estimate passive permeability (Tewksbury, MA, USA). HLMs, obtained from Sigma-Aldrich (St. Louis, MO, USA), were used for the metabolic stability assay. The most likely sites of metabolism could be identified, thanks to the MetaSite 6.0.1 program from Molecular Discovery Ltd. (Hertfordshire, UK), which was used to support the microsome experiments. The impact on recombinant human cytochromes CYP3A4, CYP2D6, and CYP2C9 was examined using CYP3A4, CYP2D6, and CYP2C9 P450-Glo kits supplied by Promega (Madison, WI, USA) in order to anticipate possible DDIs. […] The vitality of the cells was assessed using the CellTiter 96 AQueous Non-Radioactive Cell Proliferation Assay (Promega, Madison, WI, USA), following a 48 h incubation period with either the reference medication, doxorubicin (DOX), or serial dilutions of the investigated compounds. Using an EnSpire PerkinElmer microplate reader (Waltham, MA, USA), the luminescent signal and absorbances (measured at 490 nm) in DDIs and safety assays were determined. […]

In data set [2] the test system is scPTZ seizures, mice. The experiment in a line: subcutaneous pentylenetetrazole (scPTZ) seizure test. It is filed as in vivo, mouse. Conditions: 100 mg/kg i.p., 0.5 h; for protection in the scPTZ seizures: four mice. Here is the method: R-enantiomers (R)-31–(R)-33 due to broad and potent activity in both MES and 6 Hz (32 mA) were further evaluated in the scPTZ seizures. […] (i.e., KA-104, Figure 1) to acetyl moiety causes almost complete loss of protection against PTZ seizures.
All substances were suspended in Tween 80 (1% aqueous solution) and administered i.p. as a single injection at a volume of 10 mL/kg. On each day of experimentation, fresh solutions were prepared. The detailed in vivo procedures are described elsewhere: the maximal electroshock seizure test (MES),[83] the subcutaneous pentylenetetrazole seizure test (scPTZ),[84] the 6 Hz psychomotor seizure model (32 mA and 44 mA),[85] and the chimney test.[86] The reference ASMs were purchased from commercial suppliers: VPA (Sigma-Aldrich, St. Louis, MO, USA), LCS and LEV (UCB Pharma, Braine l’Alleud, Belgium).

For data set [3], the system named is ivPTZ seizure threshold, mice. The experiment in a line: timed ivPTZ seizure threshold test. In kind it is in vivo, mouse. To be noted: for effect on the threshold for the onset of any of the studied end points (ivPTZ): 30 min before test. The protocol: The effects of (R)-31, (R)-32, and (R)-33 on the thresholds for the first myoclonic twitch, generalized clonus with loss of righting reflex, and forelimb tonus in the timed ivPTZ seizure test in mice were evaluated in the following step of pharmacological characterization. […] It should be noted that the ivPTZ seizure test is an extremely sensitive method for determining the seizure threshold in rodents.[47] In this model, (R)-31 at a dose of 50 mg/kg had no effect on the threshold for the onset of any of the studied end points. […] Compounds (R)-32 and (R)-33 were tested at a dose of 50 mg/kg only. […] (R)-33 was ineffective in the ivPTZ seizure threshold test.
Figure 2 Effect of eutomers (R)-31, (R)-32, and (R)-33 on the thresholds for the onset of (A) myoclonic twitch, (B) generalized clonus, and (C) forelimb tonic extension in the timed ivPTZ test in mice. (R)-31, (R)-32, and (R)-33 were administered, i.p., 30 min before the seizure test. Control animals received vehicle. Data are presented as means + SD in mg/kg of PTZ necessary to induce each of the three end points (n = 7–14 animals). Statistical significance was evaluated using Student’s t-test: **p < 0.01, ****p < 0.0001 vs the vehicle-treated group (GraphPad Prism 8.4.3).
(§1) 30 min prior to the testing, eutomers (R)-31, (R)-32, and (R)-33 were given i.p. after being suspended in a 1% Tween 80 solution. To reduce the number of animals utilized, neuromuscular strength measurements were made right before the seizure threshold test. The grip-strength test and the timed ivPTZ test experimental protocols were covered in full elsewhere.[87]

Data set [4] can be described thus: metabolic stability in human liver microsomes (HLMs). In kind it is in vitro ADME. Conditions: for remaining at 2 h: human, human liver microsomes, 120 min incubation, TRIS buffer pH 7.4, 37 °C; for metabolic pathway: metabolites M1–M3 (one cell per metabolite).
Data set [5] has as its system neuromuscular strength, mice. The experiment in a line: grip strength test. In kind it is in vivo, mouse. The protocol:
Prior to the ivPTZ test, a grip strength test was conducted to evaluate the tested eutomers’ acute impact on neuromuscular strength.
as §1
Figure S3. Effects of (R)-31, (R)-32, and (R)-33 on neuromuscular strength in mice. The compounds were administered i.p., 30 min before the test. Control animals received vehicle. Data are presented as mean ± SD grip strengths in millinewtons per gram of mouse body weight (mN/g); n = 10 animals. The statistical significance was evaluated using the Student’s t test (GraphPad Prism 8). […]

Data set [6] is described as follows: chimney test (motor coordination, TD50). To be noted: mouse, in vivo, ip, mice.
Description: Both the aforementioned parameters (ED50 and TD50) enabled the calculation of protective indexes (PIs), which reflect the comparative the benefit–risk ratio of these experimental therapeutic agents.
Four mice per group were randomly assigned to each experimental group in the initial screening experiments (each mouse was used just once). Four groups, each with eight animals, received injections of different doses of the investigated substances in order to determine the ED50 or TD50 values. The PIs for the compounds investigated and reference ASMs were calculated by dividing the TD50 value, as determined in the chimney test by the respective ED50 value, as determined in the MES, scPTZ, or 6 Hz (32 mA or 44 mA) tests (PI = TD50/ED50). The PIs are a measure of the potential therapeutic window of the tested agent.

T1 sequence (P10635 whole entry): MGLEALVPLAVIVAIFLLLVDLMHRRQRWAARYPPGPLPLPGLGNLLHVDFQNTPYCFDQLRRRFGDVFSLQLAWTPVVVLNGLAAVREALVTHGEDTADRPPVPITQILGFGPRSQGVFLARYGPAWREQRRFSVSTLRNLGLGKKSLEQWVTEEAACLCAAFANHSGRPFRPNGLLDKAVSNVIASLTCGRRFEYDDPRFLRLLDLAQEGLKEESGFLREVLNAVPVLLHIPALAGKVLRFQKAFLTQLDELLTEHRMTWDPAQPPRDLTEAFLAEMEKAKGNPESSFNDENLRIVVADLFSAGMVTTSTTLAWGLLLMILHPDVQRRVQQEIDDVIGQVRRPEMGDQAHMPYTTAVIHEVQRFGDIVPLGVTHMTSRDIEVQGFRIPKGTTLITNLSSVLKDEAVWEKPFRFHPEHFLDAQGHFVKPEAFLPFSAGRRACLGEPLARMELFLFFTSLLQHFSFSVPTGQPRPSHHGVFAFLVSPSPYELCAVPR

For the compound `CC(=O)N[C@@H](C(=O)N1CCN(c2cccc(C(F)(F)F)c2)CC1)c1ccccc1` [(R)-31, (R)-N-(2-Oxo-1-phenyl-2-(4-(3-(trifluoromethyl)phenyl)piperazin-1-yl)ethyl)acetamide], the “effect on CYP2D6 activity” value in data set [1] (1 and 10 μM) was “weak activation”. Moreover, in data set [2], the “protection in the scPTZ seizures” value worked out at 25%. For the same compound, the “scPTZ: number of mice protected/number of mice tested” value in data set [2] is on record as 1/4. The “effect on the threshold for the onset of any of the studied end points (ivPTZ)” value in data set [3] (50 mg/kg i.p.) is listed as “had no effect”. Also, the “threshold for generalized clonic seizure (ivPTZ)” value in data set [3] (100 mg/kg i.p., p < 0.01) is “significantly raised the threshold”. This compound also returned an amount remaining at 2 h in data set [4] of 85.2%. The metabolic pathway entry in data set [4] (metabolite 404.19 (M2)) was “dehydrogenation”; in data set [4] (metabolite 422.22 (M3)), “hydroxylation”; in data set [4] (metabolite 454.01 (M1)), “triple-hydroxylation”. In addition, the “effect on neuromuscular strength (grip strength test)” value (“effect on neuromuscular strength” for short) in data set [5] (50 mg/kg i.p.) and in data set [5] (100 mg/kg i.p.) was “did not produce any significant effects” throughout. The compound further registered a TD50 at 0.5 h in data set [6] of 174 mg/kg.

Regarding `CC(=O)N[C@@H](C(=O)N1CCN(c2cccc(OC(F)(F)F)c2)CC1)c1ccccc1` [(R)-32, (R)-N-(2-Oxo-1-phenyl-2-(4-(3-(trifluoromethoxy)phenyl)piperazin-1-yl)ethyl)acetamide], the “effect on CYP2D6 activity” value in data set [1] (1 and 10 μM) was “weak activation”. For the same compound, in data set [2], the “protection in the scPTZ seizures” value is “ineffective” and the “scPTZ: number of mice protected/number of mice tested” value is listed as 0/4. Besides, in data set [3] (50 mg/kg i.p.), the “threshold for the onset of forelimb tonus (ivPTZ)” value is reported as “did not affect the threshold”. Besides, the “threshold for the first myoclonic twitch (ivPTZ)” value in data set [3] (50 mg/kg i.p., p < 0.0001) is recorded as “significantly increased the thresholds”. Further, the “threshold for generalized clonus (ivPTZ)” value in data set [3] (50 mg/kg i.p., p < 0.01) is “significantly increased the thresholds”. The same compound returned a fraction remaining at 2 h in data set [4] of 78.5%. In addition, in data set [4] (metabolite 420.22 (M2)), the metabolic pathway result was “dehydrogenation”. Further, the metabolic pathway entry in data set [4] (metabolite 438.25 (M1)) is recorded as “hydroxylation”. In addition, the “effect on neuromuscular strength” value in data set [5] (50 mg/kg i.p.) is listed as “did not produce any significant effects”. The compound further came in with a TD50 at 0.5 h in data set [6] of 114 mg/kg.

In the case of `CC(=O)N[C@@H](C(=O)N1CCN(c2cccc(SC(F)(F)F)c2)CC1)c1ccccc1` [(R)-33, (R)-N-(2-Oxo-1-phenyl-2-(4-(3-((trifluoromethyl)thio)phenyl)piperazin-1-yl)ethyl)acetamide], the “effect on CYP2D6 activity” value in data set [1] (25 μM) is reported as “slightly inhibited”. In addition, in data set [2], the “protection in the scPTZ seizures” value is on record as “ineffective” and the “scPTZ: number of mice protected/number of mice tested” value was 0/4. In addition, the “effect on the threshold for the onset of any of the studied end points (ivPTZ)” value in data set [3] (50 mg/kg i.p.) is “ineffective”. For the same compound, the share remaining at 2 h in data set [4] was found to be 70.3%. For the same compound, in data set [4] (metabolite 436.21 (M2)), the metabolic pathway result is “dehydrogenation”. Also, the metabolic pathway entry in data set [4] (metabolite 454.08 (M3)) is listed as “hydroxylation”. In data set [5] (50 mg/kg i.p.), the “effect on neuromuscular strength” value is “did not produce any significant effects”. The same compound returned a TD50 at 0.5 h in data set [6] of 146 mg/kg.

By share remaining is commonly meant what is left of the initial amount, in per cent. As usually defined, the TD50 is the 50% point of the dose-response relation for the toxic effect studied.
